5 molecules from ChEMBL document CHEMBL4680133, “Novel nitroimidazole derivatives evaluated for their trypanocidal, cytotoxic, and genotoxic activities” (Eur J Med Chem, 2020) can be followed below.

SMILES strings stand for the structures.

In one series the test system is Trypanosoma cruzi. The series is described as follows: Antitrypanosomal activity against bloodstream form of Trypanosoma cruzi Y trypomastigotes infected in African green monkey Vero cells assessed as increase in parasite lysis measured after 24 hrs by Neubauer chamber method. It counts as functional, organism-based.
Series [1] concerns HepG2. The series is described as follows: Genotoxicity in human HepG2 assessed as number of micronucleated cells at 100 ug/ml measured after 24 hrs by micronucleus test (reference value: 14 to 18). To be noted: hepg2, 24 h, dose 100 µg/ml. In kind it is toxicity, cell-based.
The nature of series [2]: Genotoxicity in human HepG2 assessed as survival at 100 ug/ml measured after 24 hrs by micronucleus test (reference value: 100%). It counts as toxicity, cell-based. The conditions noted are these: HepG2 cells, at 100 µg/mL, read-out: Survival.
The test system of series [3] is HepG2. The series is described as follows: Genotoxicity in human HepG2 assessed as mitotic index at 100 ug/ml measured after 24 hrs by micronucleus test (reference value: 61 to 108). To be noted: hepg2, 24 h, dose 100 µg/ml. It counts as toxicity, cell-based.

As to `Cn1cnc([N+](=O)[O-])c1-n1cc(C2=CCCCC2)nn1`, the IC50 in the series on Trypanosoma cruzi is 41.7 µM. On the same count and under the same terms, next, `Cn1cnc([N+](=O)[O-])c1-n1ccnc1`: over 2000 µM. Turning to `c1ccc2c(c1)cc1ccc3cccc4ccc2c1c34` [BENZO[DEF]CHRYSENE], the Activity in the series with HepG2 [1] was determined as 31. In addition, in series [2], the viability at 24 h, 100 ug/ml came to 99%. Besides, the Activity_index in the series on HepG2 [3] was 57. Regarding `CCCCCc1cn(-c2c([N+](=O)[O-])ncn2C)nn1`, the IC50 in the series with Trypanosoma cruzi worked out at 54.3 µM.

Consider `Cn1cnc([N+](=O)[O-])c1-n1cncn1`, for which the IC50 in the series on Trypanosoma cruzi came to 354 µM.

As a reminder, the IC50 is the midpoint of a concentration-inhibition curve.
